Test results as given in US20220411471A1, “CELL-PERMEABLE CYCLIC PEPTIDES AND USES THEREOF” (Unnatural Products Inc., priority 2019, published 2022).
Non-standard residues stand in square brackets, D forms with d. Residues, ends and D or L forms follow the SMILES beside them. NEtPhe(4-F) = CCN[C@@H](Cc1ccc(F)cc1)C(=O)O; Ala(4-thiazolyl) = N[C@@H](Cc1cscn1)C(=O)O; NMePhe(4-F) = CN[C@@H](Cc1ccc(F)cc1)C(=O)O; Phe(4-Cl) = N[C@@H](Cc1ccc(Cl)cc1)C(=O)O; Phe(4-F) = N[C@@H](Cc1ccc(F)cc1)C(=O)O; NMeF = CN[C@@H](Cc1ccccc1)C(=O)O; Tle = CC(C)(C)[C@H](N)C(=O)O; NMeV = CN[C@H](C(=O)O)C(C)C; Pip = O=C(O)[C@@H]1CCCCN1; hSer = N[C@@H](CCO)C(=O)O; NMeA = CN[C@@H](C)C(=O)O; dNMeA = CN[C@H](C)C(=O)O; Abu = CC[C@H](N)C(=O)O; Nme = COCCNCC(=O)O

Key:
[1] = biological target: T1, Human MDM2 (HDM2) 1-116 (Homo sapiens, UniProt Q00987); assay: Fluorescence polarization assay 2, MDM2 (Table 4); assay type: binding; conditions: Table 4; fluorescence polarization; read-out: MDM2 IC50
T1 construct: Human MDM2 (HDM2) 1-116
Description: (§1) Compounds dissolved in DMSO were pin transferred (˜100-200 nL) to the 384 well plate containing the MDM2/p53 solution. After incubation for 60 minutes, the fluorescence polarization was read on a Molecular Devices SpectraMax plate reader equipped with a Fluorescein FP cartridge. In addition to probe alone (positive control) and probe/MDM2 (negative control), a titration of linear p53(18-26) was included on every plate as an additional control. IC50 values were fit using either Prism or Collaborative Drug Discovery.

[2] = biological target: T2, Human MDM4 (HDM4) 1-114 (Homo sapiens, UniProt O15151); assay: Fluorescence polarization assay 2, MDM4 (Table 4); assay type: binding; conditions: Table 4; fluorescence polarization; read-out: MDM4 IC50
T2 construct: Human MDM4 (HDM4) 1-114
T2 sequence (O15151 1-114): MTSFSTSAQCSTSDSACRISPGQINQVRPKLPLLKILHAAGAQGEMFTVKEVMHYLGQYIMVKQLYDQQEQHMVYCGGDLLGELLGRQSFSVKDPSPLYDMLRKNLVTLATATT
Description: as §1, with “MDM4/p53” for “MDM2/p53”, “probe/MDM4” for “probe/MDM2”

[3] = Pharmacokinetic parameters of Compound 35, intravenous, mice; assay type: in vivo; conditions: mouse, 1 mg/kg, plasma
Description: Mice were treated intravenously with Compound 35 (1 mg/kg) and plasma was collected at various timepoints to determine pharmacokinetic parameters. The change in mean plasma concentration over time is shown in FIG. 5, and all pharmacokinetic parameters obtained are summarized in Table 2: […]

T1 sequence (Q00987 1-116): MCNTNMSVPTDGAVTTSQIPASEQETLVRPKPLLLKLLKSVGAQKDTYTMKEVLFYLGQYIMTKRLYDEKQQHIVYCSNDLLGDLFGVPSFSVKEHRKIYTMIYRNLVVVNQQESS

SMILES	IC50 [1] [nM]	IC50 [2] [nM]	further results
COCC[C@@H]1NC(=O)[C@H]2CCCN2C(=O)[C@H](Cc2ccccc2)N(C)C(=O)[C@H](Cc2ccc(Cl)cc2)NC(=O)[C@H](C(C)(C)C)NC(=O)[C@H](Cc2ccc(F)cc2)NC(=O)CN(CCOC)C(=O)[C@@H](C)N(C)C(=O)[C@H](Cc2cscn2)NC(=O)[C@H](C)N(C)C1=O [Compound 35, COCC[C@@H]1NC(=O)[C@H]2CCCN2C(=O)[C@H](CC2=CC=CC=C2)N(C)C(=O)[C@H](CC2=CC=C(Cl)C=C2)NC(=O)[C@@H](NC(=O)[C@H](CC2=CC=C(F)C=C2)NC(=O)CN(CCOC)C(=O)[C@@H](C)N(C)C(=O)[C@H](CC2=CSC=N2)NC(=O)[C@H](C)N(C)C1=O)C(C)(C)C] (cyclo([Ala(4-thiazolyl)][dNMeA][Nme][Phe(4-F)][Tle][Phe(4-Cl)][NMeF][dP][hSer](Me)[NMeA]))	50 to 100	> 150	AUC(0-inf) [3]: 1040 ng·h/mL; AUC(0-t) [3]: 1040 ng·h/mL; Cmax [3]: 3570 ng/mL; MRT inf [3]: 9 min; MRT last [3]: 7.8 min; Tmax [3]: 4.8 min; clearance [3]: 16 mL/min/kg; half-life [3]: 62.4 min; Vd ([3]; read-out: Vss): 0.14 L/kg
COCC[C@@H]1NC(=O)[C@H]2CCCN2C(=O)[C@H](Cc2ccc(F)cc2)N(C)C(=O)[C@H](Cc2ccc(Cl)cc2)NC(=O)[C@H](C(C)(C)C)NC(=O)[C@H](Cc2ccc(F)cc2)NC(=O)CN(CCOC)C(=O)[C@@H](C)N(C)C(=O)[C@H](Cc2cscn2)NC(=O)[C@H](C)N(C)C1=O [Compound 37, COCC[C@@H]1NC(=O)[C@H]2CCCN2C(=O)[C@H](Cc2ccc(F)cc2)N(C)C(=O)[C@H](CC2=CC=C(Cl)C=C2)NC(=O)[C@@H](NC(=O)[C@H](Cc2ccc(F)cc2)NC(=O)CN(CCOC)C(=O)[C@@H](C)N(C)C(=O)[C@H](CC2=CSC=N2)NC(=O)[C@H](C)N(C)C1=O)C(C)(C)C] (cyclo([Ala(4-thiazolyl)][dNMeA][Nme][Phe(4-F)][Tle][Phe(4-Cl)][NMePhe(4-F)][dP][hSer](Me)[NMeA]))	25 to 50	50 to 100	–
COCC[C@@H]1NC(=O)[C@H]2CCCN2C(=O)[C@H](Cc2ccc(F)cc2)N(C)C(=O)[C@H](Cc2ccc(Cl)cc2)NC(=O)[C@H](C(C)(C)C)NC(=O)[C@H](Cc2ccc(F)cc2)NC(=O)[C@H](C)N(C)C(=O)[C@@H](C)N(C)C(=O)[C@H](Cc2cscn2)NC(=O)[C@H](C)N(C)C1=O [Compound 38, COCC[C@@H]1NC(=O)[C@H]2CCCN2C(=O)[C@H](Cc2ccc(F)cc2)N(C)C(=O)[C@H](CC2=CC=C(Cl)C=C2)NC(=O)[C@@H](NC(=O)[C@H](Cc2ccc(F)cc2)NC(=O)[C@H](C)N(C)C(=O)[C@@H](C)N(C)C(=O)[C@H](CC2=CSC=N2)NC(=O)[C@H](C)N(C)C1=O)C(C)(C)C] (cyclo([Ala(4-thiazolyl)][dNMeA][NMeA][Phe(4-F)][Tle][Phe(4-Cl)][NMePhe(4-F)][dP][hSer](Me)[NMeA]))	25 to 50	50 to 100	–
COCC[C@@H]1NC(=O)[C@H]2CCCN2C(=O)[C@H](Cc2ccccc2)N(C)C(=O)[C@H](Cc2ccc(Cl)cc2)NC(=O)[C@H](C)N(C)C(=O)[C@H](Cc2ccc(F)cc2)NC(=O)CN(CCOC)C(=O)[C@@H](C)N(C)C(=O)[C@H](Cc2cscn2)NC(=O)[C@H](C)N(C)C1=O [Compound 40, COCC[C@@H]1NC(=O)[C@H]2CCCN2C(=O)[C@H](CC2=CC=CC=C2)N(C)C(=O)[C@H](CC2=CC=C(Cl)C=C2)NC(=O)[C@H](C)N(C)C(=O)[C@H](CC2=CC=C(F)C=C2)NC(=O)CN(CCOC)C(=O)[C@@H](C)N(C)C(=O)[C@H](CC2=CSC=N2)NC(=O)[C@H](C)N(C)C1=O] (cyclo([Ala(4-thiazolyl)][dNMeA][Nme][Phe(4-F)][NMeA][Phe(4-Cl)][NMeF][dP][hSer](Me)[NMeA]))	25 to 50	> 150	–
COCC[C@@H]1NC(=O)[C@H]2CCCN2C(=O)[C@H](Cc2ccccc2)N(C)C(=O)[C@H](Cc2ccc(Cl)cc2)NC(=O)[C@H](C(C)C)NC(=O)[C@H](Cc2ccc(F)cc2)NC(=O)CN(CCOC)C(=O)[C@@H](C)N(C)C(=O)[C@H](Cc2cscn2)NC(=O)[C@H](C)N(C)C1=O [Compound 41, COCC[C@@H]1NC(=O)[C@H]2CCCN2C(=O)[C@H](CC2=CC=CC=C2)N(C)C(=O)[C@H](CC2=CC=C(Cl)C=C2)NC(=O)[C@@H](NC(=O)[C@H](CC2=CC=C(F)C=C2)NC(=O)CN(CCOC)C(=O)[C@@H](C)N(C)C(=O)[C@H](CC2=CSC=N2)NC(=O)[C@H](C)N(C)C1=O)C(C)C] (cyclo([Ala(4-thiazolyl)][dNMeA][Nme][Phe(4-F)]V[Phe(4-Cl)][NMeF][dP][hSer](Me)[NMeA]))	< 25	< 50	–
CC[C@@H]1NC(=O)[C@H](Cc2ccc(F)cc2)NC(=O)CN(CCOC)C(=O)[C@@H](C)N(C)C(=O)[C@H](Cc2cscn2)NC(=O)[C@H](C)N(C)C(=O)[C@H](CCOC)NC(=O)[C@H]2CCCN2C(=O)[C@H](Cc2ccccc2)N(C)C(=O)[C@H](Cc2ccc(Cl)cc2)NC1=O [Compound 42, CC[C@@H]1NC(=O)[C@H](CC2=CC=C(F)C=C2)NC(=O)CN(CCOC)C(=O)[C@@H](C)N(C)C(=O)[C@H](CC2=CSC=N2)NC(=O)[C@H](C)N(C)C(=O)[C@H](CCOC)NC(=O)[C@H]2CCCN2C(=O)[C@H](CC2=CC=CC=C2)N(C)C(=O)[C@H](CC2=CC=C(Cl)C=C2)NC1=O] (cyclo([Abu][Phe(4-Cl)][NMeF][dP][hSer](Me)[NMeA][Ala(4-thiazolyl)][dNMeA][Nme][Phe(4-F)]))	25 to 50	100 to 150	–
COCC[C@@H]1NC(=O)[C@H]2CCCN2C(=O)[C@H](Cc2ccccc2)N(C)C(=O)[C@H](Cc2ccc(Cl)cc2)NC(=O)[C@H](C(C)C)N(C)C(=O)[C@H](Cc2ccc(F)cc2)NC(=O)CN(CCOC)C(=O)[C@@H](C)N(C)C(=O)[C@H](Cc2cscn2)NC(=O)[C@H](C)N(C)C1=O [Compound 43, COCC[C@@H]1NC(=O)[C@H]2CCCN2C(=O)[C@H](CC2=CC=CC=C2)N(C)C(=O)[C@H](CC2=CC=C(Cl)C=C2)NC(=O)[C@H](C(C)C)N(C)C(=O)[C@H](CC2=CC=C(F)C=C2)NC(=O)CN(CCOC)C(=O)[C@@H](C)N(C)C(=O)[C@H](CC2=CSC=N2)NC(=O)[C@H](C)N(C)C1=O] (cyclo([Ala(4-thiazolyl)][dNMeA][Nme][Phe(4-F)][NMeV][Phe(4-Cl)][NMeF][dP][hSer](Me)[NMeA]))	25 to 50	100 to 150	–
CCN1C(=O)[C@H](Cc2ccc(Cl)cc2)NC(=O)[C@H](C(C)(C)C)NC(=O)[C@H](Cc2ccc(F)cc2)NC(=O)CN(CCOC)C(=O)[C@@H](C)N(C)C(=O)[C@H](Cc2cscn2)NC(=O)[C@H](C)N(C)C(=O)[C@H](CCOC)NC(=O)[C@H]2CCCN2C(=O)[C@@H]1Cc1ccc(F)cc1 [Compound 44, CCN1[C@@H](Cc2ccc(F)cc2)C(=O)N2CCC[C@@H]2C(=O)N[C@@H](CCOC)C(=O)N(C)[C@@H](C)C(=O)N[C@@H](Cc2cscn2)C(=O)N(C)[C@H](C)C(=O)N(CCOC)CC(=O)N[C@@H](Cc2ccc(F)cc2)C(=O)N[C@H](C(=O)N[C@@H](Cc2ccc(Cl)cc2)C1=O)C(C)(C)C] (cyclo([Ala(4-thiazolyl)][dNMeA][Nme][Phe(4-F)][Tle][Phe(4-Cl)][NEtPhe(4-F)][dP][hSer](Me)[NMeA]))	50 to 100	> 150	–
COCC[C@@H]1NC(=O)[C@H]2CCCN2C(=O)[C@H](Cc2ccc(F)cc2)N(C)C(=O)[C@H](Cc2ccc(Cl)cc2)NC(=O)[C@@H]2CCCCN2C(=O)[C@H](Cc2ccc(F)cc2)NC(=O)CN(CCOC)C(=O)[C@@H](C)N(C)C(=O)[C@H](Cc2cscn2)NC(=O)[C@H](C)N(C)C1=O [Compound 46, COCC[C@@H]1NC(=O)[C@H]2CCCN2C(=O)[C@H](Cc2ccc(F)cc2)N(C)C(=O)[C@H](Cc2ccc(Cl)cc2)NC(=O)[C@@H]2CCCCN2C(=O)[C@H](Cc2ccc(F)cc2)NC(=O)CN(CCOC)C(=O)[C@@H](C)N(C)C(=O)[C@H](Cc2cscn2)NC(=O)[C@H](C)N(C)C1=O] (cyclo([Ala(4-thiazolyl)][dNMeA][Nme][Phe(4-F)][Pip][Phe(4-Cl)][NMePhe(4-F)][dP][hSer](Me)[NMeA]))	50 to 100	100 to 150	–
COCC[C@@H]1NC(=O)[C@H]2CCCN2C(=O)[C@H](Cc2ccc(F)cc2)N(C)C(=O)[C@H](Cc2ccc(Cl)cc2)NC(=O)[C@@H]2CCCN2C(=O)[C@H](Cc2ccc(F)cc2)NC(=O)CN(CCOC)C(=O)[C@@H](C)N(C)C(=O)[C@H](Cc2cscn2)NC(=O)[C@H](C)N(C)C1=O [Compound 47, COCC[C@@H]1NC([C@H]2CCCN2C([C@@H](N(C([C@@H](NC([C@@H]3CCCN3C([C@@H](NC(CN(C([C@H](N(C([C@@H](NC([C@@H](N(C1=O)C)C)=O)Cc4ncsc4)=O)C)C)=O)CCOC)=O)Cc5ccc(F)cc5)=O)=O)Cc6ccc(Cl)cc6)=O)C)Cc7ccc(F)cc7)=O)=O] (cyclo([Ala(4-thiazolyl)][dNMeA][Nme][Phe(4-F)]P[Phe(4-Cl)][NMePhe(4-F)][dP][hSer](Me)[NMeA]))	25 to 50	100 to 150	–
